Results reported in paper PMC8659006 (Molecules, 2021).
Converted amounts (≈) assume the structure as drawn. Where two headings read alike, the source gives them in different places. Where no end group is shown, it is not given here.

Experiments:
[1] = tested on: P. aeruginosa 337005, S. aureus 1882 and ETEC K88; format: cell-based
Method: (§1) The reference strains P. aeruginosa 337005, S. aureus 1882 and ETEC K88 were cultivated at 37 °C for 12 h. […] Then, 180 µL MH broth per well were added to the microtiter plate (Corning, Corning, NY, USA), and then 2 µL of the diluted bacterial solution was dispensed into each well. Peptides were then serially diluted with Milli-Q water, and 20 µL dilutions were added to the wells. Then, 2 µL Milli-Q water instead of 2 µL diluted bacterial solution was used as a blank control, and 20 µL Milli-Q water instead of 20 µL peptide dilution was used as a growth control. After culturing for 12 h at 37 °C, the MIC of the reference strain was observed, and the experiment was performed in three independent replicates.

human erythrocytes = conditions: 90 µg/mL; cited from earlier work
Text: The low hemolytic activity of antimicrobial peptides on mammalian red blood cells is very important in clinical applications.

S. aureus 1882 = format: cell-based, Staphylococcus aureus
Method: as §1

P.aeruginosa 337005 = format: cell-based, Pseudomonas aeruginosa
Method: as §1

ETEC K88 [2] = assay: MIC, microbroth dilution; format: cell-based, Enterotoxigenic Escherichia coli; conditions: micro-dilution in MH broth, 37 °C, 12 h, three independent replicates
Method: as §1

ETEC K88 [3] = assay: Thermal stability, antibacterial activity by inhibition zone; format: physicochemical, Enterotoxigenic Escherichia coli; conditions: for Antimicrobial activity after heat treatment: n = 3
Method: (§2) ETEC K88 was used as a reference strain. […] The experiment was performed in three independent replicates.
(§3) The reference strain was ETEC K88.

ETEC K88 [4] = assay: Scanning electron microscopy of treated bacteria; format: cell-based, Enterotoxigenic Escherichia coli
Method: Scanning electron microscopy (SEM) was used to observe the damage of CLP to bacterial cell membranes. ETEC K88 was incubated at 37 °C for 12 h and then diluted with PBS to 5 × 10^5 CFU/mL. […] The CLP-treated ETEC K88 was washed with PBS and treated with 2.5% glutaraldehyde overnight. After dehydrating with alcohol and drying for gold coating, the samples were imaged by Quanta 200 (FEI).

ETEC K88 [5] = assay: pH stability, antibacterial activity by inhibition zone; format: physicochemical, Enterotoxigenic Escherichia coli; conditions: pH 4.0 to 9.0, 2 h, n = 3
Method: as §2, §3

ETEC K88 [6] = assay: Inhibition zone, Kirby–Bauer diffusion method; format: cell-based, Enterotoxigenic Escherichia coli; conditions: 50 µL on filter disk, 37 °C, 12 h, compared to PBS control and SUMO-TEV-CLP, n = 3
Method: as §2

ETEC K88 [7] = assay: Propidium iodide uptake (membrane permeabilization); format: cell-based, Enterotoxigenic Escherichia coli; conditions: 100% = 0.05% SDS, average of 3 replicates
Method: PI can stain DNA, but cannot penetrate the complete cell membrane. Therefore, the fluorescence intensity of PI is positively correlated with the degree of cell membrane damage. The reference strain ETEC K88 was cultured at 37 °C for 12 h, and then diluted to 5 × 10^5 CFU/mL. Then, 10 µg/mL PI (Thermo Fisher, Waltham, MH, USA) was added to the diluted bacterial solution. […] The fluorescence intensity was measured using a microplate reader (Synergy H1, Bio Tek, Winooski, VT, USA) at the excitation wavelength and emission wavelength of 535 nm and 617 nm, respectively. During the continued 120 min reaction, the fluorescence values were monitored every 10 min. The PBS was a negative control, and 0.05% SDS was a positive control.

[8] = range over P. aeruginosa 337005, S. aureus 1882, ETEC K88
[9] = micro-dilution in MH broth, 37 °C, 12 h, three independent replicates

Compound: RKDVY [TP5]
- MICs for all the three reference strains (range) [1, 8]: over 512 µg/mL

Compound: CC[C@H](C)[C@H](NC(=O)[C@H](CCCCN)NC(=O)[C@H](CCC(=O)O)NC(=O)[C@H](CCCCN)NC(=O)[C@H](CO)NC(=O)[C@H](CCCCN)NC(=O)[C@H](CCCNC(=N)N)NC(=O)[C@H](Cc1ccccc1)NC(=O)[C@H](Cc1ccccc1)NC(=O)[C@H](CC(=O)O)NC(=O)CNC(=O)[C@H](CC(C)C)NC(=O)[C@@H](N)CC(C)C)C(=O)NCC(=O)N[C@@H](CCCCN)C(=O)N[C@@H](CCC(=O)O)C(=O)N[C@@H](Cc1ccccc1)C(=O)N[C@@H](CCCCN)C(=O)N[C@@H](CCCNC(=N)N)C(=O)N[C@H](C(=O)N[C@H](C(=O)N[C@@H](CCC(N)=O)C(=O)N[C@@H](CCCNC(=N)N)C(=O)N[C@H](C(=O)N[C@@H](CCCCN)C(=O)N[C@@H](CC(=O)O)C(=O)N[C@@H](Cc1ccccc1)C(=O)N[C@@H](CC(C)C)C(=O)N[C@@H](CCCNC(=N)N)C(=O)N[C@@H](CC(N)=O)C(=O)N[C@@H](CC(C)C)C(=O)N[C@H](C(=O)N1CCC[C@H]1C(=O)N[C@@H](CCCNC(=N)N)C(=O)N[C@H](C(=O)N[C@@H](CCC(=O)O)C(=O)N[C@@H](CO)C(=O)O)[C@@H](C)O)C(C)C)[C@@H](C)CC)C(C)C)[C@@H](C)CC [LL37]
- Hemolysis (human erythrocytes): about 30%
- MIC (S. aureus 1882; [9]): 32 µg/mL (≈ 7.12 µM)
- MICs for all the three reference strains (range) [1, 8]: 16 to 32 µg/mL
- MIC (P.aeruginosa 337005; [9]): 32 µg/mL (≈ 7.12 µM)
- MIC (ETEC K88 [2]): 16 µg/mL (≈ 3.56 µM)

Compound: KWKLFKKIIGKEFKRIVQRIKDFLRNLVPRTERKDVT [sCLP]
- MIC (S. aureus 1882; 1882, 12 h): 8 µg/mL
- Stability compared with recombinant CLP (ETEC K88 [3]; same temperature, pH value and enzyme treatment): almost the same stability
- MIC (P.aeruginosa 337005; 337005, 12 h): 2 µg/mL

Compound: KWKLFKKIIGKEFKRIVQRIKDFLRNLVPRTERKDVT [rCLP]
- Membrane morphology by SEM (ETEC K88 [4]): damaged the integrity of the bacterial cell membrane
- MIC (S. aureus 1882; 1882, 12 h): 8 µg/mL
- Antimicrobial activity after heat treatment (ETEC K88 [3]; 70 °C for 30 min): almost completely retained
- Antimicrobial activity after heat treatment (ETEC K88 [3]; temperatures above 70 °C (up to 100 °C), 30 min): significantly reduced the activity
- Activity maintained throughout pH range (ETEC K88 [5]): more than 74.8%
- MICs for all the three reference strains (range) ([1]; 12 h): 2 to 8 µg/mL
- Inhibition zone against ETEC K88 (ETEC K88 [6]): significantly inhibited the growth
- Increase of PI fluorescence uptake (ETEC K88 [7]; 0.5 × MIC (1 µg/mL), 50 min): 16.0%
- Increase of PI fluorescence uptake (ETEC K88 [7]; 0.5 × MIC (1 µg/mL), 120 min): 51.5%
- Increase of PI fluorescence uptake (ETEC K88 [7]; 2 × MIC (4 µg/mL), 50 min): 83.3%
- Increase of PI fluorescence uptake (ETEC K88 [7]; 2 × MIC (4 µg/mL), 120 min): 97.0%
- MIC (P.aeruginosa 337005; 337005, 12 h): 2 µg/mL
